From patent publication US7270977B2, “Polypeptides for identifying fungicidally active compounds” (priority 2001, dated 2007)

The molecules below were run against U. maydis IMPDH (Imp1) (Ustilago maydis, UniProt A0A0D1CRJ0, T408N) (assay: Inhibition of U. maydis IMPDH (NADH fluorescence assay)). Details: negative decimal logarithm of the molar IC50 for 50% inhibition of the enzyme; read-out: pI50 (converted).
Format: biochemical
Experimental: The activity, or the decrease or increase in activity, can also preferably be determined by means of the conversion of the substrate NAD^+ into NADH, where the lower, or inhibited, activity of the polypeptide according to the invention is determined with reference to a less sharp increase in fluorescence emitted by the smaller amounts of NADH formed (see also FIG. 1). NADH fluoresces more than NAD^+.
To this end, the polypeptide according to the invention is incubated at a suitable concentration, which is preferably between 0.1 and 20 ng/μl, preferably between 0.13 and 10 ng/μl, of the enzyme, with NAD^+ at a concentration of from 5 to 400 μM, preferably 10 to 100 μM, and IMP at a concentration of from 5 to 400 μM, preferably from 50 to 300 μM, at a suitable temperature. The IMP concentration is preferably in each case twice as high as the concentration of the substrate NAD^+. It must be borne in mind that substrate inhibition can be observed for both substrates, viz. NAD^+ and IMP, and the used concentrations of the two substrates should therefore be checked in this respect. The temperature may be in a range of from 8 to 37° C. The measurement is preferably carried out at from 10 to 30° C., room temperature is also suitable in particular. The reaction is carried out in a usual buffer (“assay buffer”) which can contain preferably for example 20 to 200 mM KCl, 1 to 5 mM DTE or DTT, 0.01 to 1% BSA, 0.01 to 0.1% Tween 20 and 2 to 10% glycerol and brought to a pH of 8, for example using 25 to 100 mM Tris buffer (see Example 2). […]
The formation of NADH in the course of the reaction is then monitored with reference to the fluorescence at an excitation wavelength of 360 nm and an emission wavelength of 465 nm. The increase in fluorescence in the presence of a chemical compound can then be compared with the increase in fluorescence in the absence of a chemical compound. […] The period within which the increase in fluorescence is measured can be varied. A slow increase in fluorescence can be observed over the course of several hours, until, after 5 to 10 hours, a plateau is reached (see also FIG. 3). As a rule, the fluorescence decreases thereafter. […]
The measurement can also be carried out in formats conventionally used for HTS or UHTS assays, for example in microtitre plates, into which for example a total volume of 5 to 50 μl is introduced per reaction or per well and the individual components are present in one of the above-stated final concentrations. […] The mixture is then incubated for example for up to 2 or 3 hours at a suitable temperature, and the increase in fluorescence is measured at an excitation wavelength of 360 nm and an emission wavelength of 460 nm. […]
In the case of c1coc(-c2oc3nc4c(-c5ccco5)c(-c5ccco5)oc4nc3c2-c2ccco2)c1 [Example 4], the IC50 is reported as 0.2 µM.
CN1CCN(C)c2cc3nc4ccccc4nc3cc21 [Example 3] showed an IC50 of 10 µM.
In the case of CCCCCCCCCCCCCCCCOc1ccc(CCCC(=O)O)cc1 [Example 1], the IC50 is reported as 25.1 µM.
Work on COC1=Cc2ccccc2C(=O)C1=O [Example 2] yielded an IC50 of 12.6 µM.
